Measured values: BindingDB's records for doi:10.7270/Q2183BCW (D3R/Abbott, 2020)

target: Cathepsin S (Homo sapiens, UniProt P25774); test: D3R2024
From the text: D3R2024

Sequence of Cathepsin S (P25774 whole entry): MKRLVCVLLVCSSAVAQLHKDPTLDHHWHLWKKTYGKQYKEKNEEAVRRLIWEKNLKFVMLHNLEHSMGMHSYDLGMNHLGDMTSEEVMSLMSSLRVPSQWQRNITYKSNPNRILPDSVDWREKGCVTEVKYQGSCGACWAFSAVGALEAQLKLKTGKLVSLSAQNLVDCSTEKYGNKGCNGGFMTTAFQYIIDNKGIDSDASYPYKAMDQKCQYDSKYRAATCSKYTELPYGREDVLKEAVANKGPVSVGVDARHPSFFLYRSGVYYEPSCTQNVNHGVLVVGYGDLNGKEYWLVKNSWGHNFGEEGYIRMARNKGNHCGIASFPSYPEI

Compound | IC50
N#Cc1cccc(C(=O)NC2CCN(c3ccnc(Nc4ccc(F)cc4)n3)C2)c1 (configuration not stated) [D3RKN_100] | 5.8 µM
COc1cc(Nc2nccc(N3CCC(NC(=O)Nc4cc(C)ccc4C)C3)n2)cc(OC)c1OC (configuration not stated) [D3RKN_101] | 10 µM
COc1cc(Nc2nccc(N3CCC(NC(=O)c4cc5ccccc5s4)C3)n2)cc(OC)c1OC (configuration not stated) [D3RKN_104] | 0.71 µM
COC(=O)C(NC(=O)NC1CCN(c2ccnc(Nc3ccc(F)cc3)n2)C1)c1ccccc1 (configuration not stated) [D3RKN_106] | 7.8 µM
Cc1ccc(C)c(NC(=O)NC2CCN(c3ccnc(Nc4ccc(F)cc4)n3)C2)c1 (configuration not stated) [D3RKN_108] | 10 µM
COC(=O)C(Cc1ccccc1)NC(=O)NC1CCN(c2ccnc(Nc3ccc(F)cc3)n2)C1 (configuration not stated) [D3RKN_109] | 1.9 µM
O=C(NC1CCN(c2ccnc(Nc3ccc(F)cc3)n2)C1)c1cc2ccccc2s1 (configuration not stated) [D3RKN_110] | 10 µM
COc1ccc(Nc2nccc(N3CCC(NC(=O)c4cccc(NC(C)=O)c4)C3)n2)cc1 (configuration not stated) [D3RKN_111] | 2.4 µM
COc1ccc(Nc2nccc(N3CCC(NC(=O)c4cccc(C#N)c4)C3)n2)cc1 (configuration not stated) [D3RKN_112] | 4.7 µM
COC(=O)c1cccc(NC(=O)NC2CCN(c3ccnc(Nc4ccc(OC)cc4)n3)C2)c1 (configuration not stated) [D3RKN_113] | 10 µM
COc1ccc(Nc2nccc(N3CCC(NC(=O)Nc4cc(C)ccc4C)C3)n2)cc1 (configuration not stated) [D3RKN_115] | 10 µM
COC(=O)c1cccc(NC(=O)NC2CCN(c3ccnc(Nc4ccc(F)cc4)n3)C2)c1 (configuration not stated) [TCMDC-133606] | 10 µM

Compounds with a lower IC50, results first:

IC50 | Compound
0.34 µM | COC(=O)c1cccc(NC(=O)NC2CCN(c3ccnc(Nc4cc(OC)c(OC)c(OC)c4)n3)C2)c1 (configuration not stated) [D3RKN_99]
0.68 µM | CCCc1ccc(S(=O)(=O)NC2CCN(c3ccnc(Nc4ccc(OC)cc4)n3)C2)cc1 (configuration not stated) [D3RKN_102]
0.053 µM | COc1ccc(Nc2nccc(N3CCC(NS(=O)(=O)c4ccc(NC(C)=O)cc4)C3)n2)cc1 (configuration not stated) [D3RKN_103]
0.18 µM | COc1cc(Nc2nccc(N3CCC(NC(=O)c4cccc(C#N)c4)C3)n2)cc(OC)c1OC (configuration not stated) [D3RKN_105]
0.054 µM | COc1cc(Nc2nccc(N3CCC(NC(=O)c4cccc(NC(C)=O)c4)C3)n2)cc(OC)c1OC (configuration not stated) [D3RKN_114]
